# Source: patent US9644201B2, “Structured peptide processing” (BICYCLE THERAPEUTICS LIMITED, priority 2009, dated 2017)
# Starred links: 1 amine or outer side, 2 acyl side, 3 side chain; linkers in the order of their positions; H or OH if unused. Positions of bridges follow the written chain, without caps; N, C: chain ends. Residues, ends and D or L forms follow the SMILES beside them. No end group written: not given here. *: point of attachment. TBMB = c1c(C[*:1])cc(C[*:3])cc1C[*:2]; Cam = NC(=O)C*
# Columns and labels:
# various proteases = format: in vitro ADME
# Experimental: (§1) For methods, see Example 3 following. The proteolysis was undertaken at 37° C. Cathepsin G and kalikrein reactions were carried out in 10 mM Tris pH 7.4, 150 mM NaCl, 10 mM MgCl2, 1 mM CaCl2, 0.1% BSA, 0.01% Triton X100, 5% DMSO. Chymotrypsin reactions were carried out in 100 mM Tris pH 7.4, 10 mM CaCl2. Pronase and proteinase K reactions were carried out in 100 mM Tris pH 7.4, 0.5% SDS. Subtilisin reactions were carried out in 50 mM KH2PO4 pH 7.5. Trypsin reactions were carried out in 67 mM sodium phosphate pH 7.6. Reaction conditions with serum involve dissolving the peptide in 1×PBS (total volume 24 μl) and 6 μl of human serum added to the reaction.
# (§2) Peptides (linear and conjugates) were dissolved in water at a concentration of 1 mg/ml, giving an effective concentration of ˜0.5 mM stock solutions and the concentration determined using amino acid analysis. […] Samples were analysed by MALDI-TOF mass spectrometry to identify the fragment peaks and thus determine the site of cleavage. Where there was ambiguity as to the cleavage site samples were analysed by either by MALDI-TOF-TOF (Bruker Ultraflex 3) or by Linear Ion Trap (Thermoscientific Orbitrap XL) to determine accurate masses.
# Cathepsin G = target: T1, Cathepsin G (Homo sapiens, UniProt P08311); assay: Peptide conjugate digestion with Cathepsin G; format: in vitro ADME; note: key: +++: substantially intact; −: completely cleaved
# T1 sequence (P08311 21-244): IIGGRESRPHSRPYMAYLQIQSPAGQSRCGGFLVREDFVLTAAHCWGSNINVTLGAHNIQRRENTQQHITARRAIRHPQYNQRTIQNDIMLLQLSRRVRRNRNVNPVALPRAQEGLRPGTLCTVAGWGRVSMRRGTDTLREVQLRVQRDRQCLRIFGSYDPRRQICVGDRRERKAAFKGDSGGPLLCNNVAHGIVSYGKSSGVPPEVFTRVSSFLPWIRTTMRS
# Experimental: as §1
# (§3) Peptides (linear and conjugates) were dissolved in water at a concentration of 1 mg/ml, giving an effective concentration of ˜0.5 mM stock solutions and the concentration determined using amino acid analysis. 2 μl of peptide conjugates ([…]) (˜30 μM in reactions depending on actual molecular weight) were dissolved in reaction buffer (see below) in a total reaction volume of 30 μl, followed by the protease (typically in the range 1, 0.1 and 0.01 μg per reaction), and samples were incubated at 37° C. for 1 hr. 10 μl aliquots were quenched into 10 μl of 1% TFA. Samples were analysed by MALDI-TOF mass spectrometry to identify the fragment peaks and thus determine the site of cleavage. Where there was ambiguity as to the cleavage site samples were analysed by either by MALDI-TOF-TOF (Bruker Ultraflex 3) or by Linear Ion Trap (Thermoscientific Orbitrap XL) to determine accurate masses.
# Trypsin = assay: Peptide conjugate digestion with Trypsin; format: in vitro ADME; for Peptide digestion, intactness scale: key: +++: substantially intact; −: completely cleaved
# Experimental: as §1, §3
# [1] = Peptide conjugate digestion with Chymotrypsin; format: in vitro ADME; conditions: isolated enzyme chymotrypsin, pH 7.4; chymotrypsin 0.1 μg, after 1 hr; read-out: fraction cleaved by chymotrypsin; for Peptide digestion, intactness scale: key: +++: substantially intact; −: completely cleaved
# Experimental: as §1, §3
# Chymotrypsin = assay: Peptide conjugate digestion with Chymotrypsin; format: in vitro ADME; for Peptide digestion, intactness scale: key: +++: substantially intact; −: completely cleaved
# Experimental: as §1, §3
# Subtilisin = assay: Peptide conjugate digestion with Subtilisin; format: in vitro ADME; note: key: +++: substantially intact; −: completely cleaved
# Experimental: as §1, §2
# Pronase = assay: Peptide conjugate digestion with Pronase; format: in vitro ADME; note: key: +++: substantially intact; −: completely cleaved
# Experimental: as §1, §3
# Kalikrein = Kalikrein (Homo sapiens, UniProt P03952); assay: Peptide conjugate digestion with Kalikrein; format: in vitro ADME; set-up: Peptide digestion, intactness scale: key: +++: substantially intact; −: completely cleaved
# Kalikrein, sequence (P03952 20-638): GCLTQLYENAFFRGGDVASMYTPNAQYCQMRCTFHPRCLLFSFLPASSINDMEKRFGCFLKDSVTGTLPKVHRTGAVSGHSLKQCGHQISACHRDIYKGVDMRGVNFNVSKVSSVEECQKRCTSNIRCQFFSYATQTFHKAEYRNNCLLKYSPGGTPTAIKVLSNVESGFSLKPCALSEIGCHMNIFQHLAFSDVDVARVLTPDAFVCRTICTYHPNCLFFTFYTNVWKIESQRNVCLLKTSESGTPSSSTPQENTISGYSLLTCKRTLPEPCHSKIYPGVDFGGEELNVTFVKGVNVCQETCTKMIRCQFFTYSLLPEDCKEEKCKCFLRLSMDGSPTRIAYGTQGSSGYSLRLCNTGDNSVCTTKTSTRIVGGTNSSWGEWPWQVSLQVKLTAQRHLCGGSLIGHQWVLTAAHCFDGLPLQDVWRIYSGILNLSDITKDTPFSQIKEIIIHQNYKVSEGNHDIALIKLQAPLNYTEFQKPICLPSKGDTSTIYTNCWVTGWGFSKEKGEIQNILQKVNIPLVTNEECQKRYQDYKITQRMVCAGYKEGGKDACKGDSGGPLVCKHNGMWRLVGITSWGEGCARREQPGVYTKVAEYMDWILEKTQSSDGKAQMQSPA
# Experimental: as §1, §3
# Proteinase K = Proteinase K (Parengyodontium album, UniProt P06873); assay: Peptide conjugate digestion with Proteinase K; format: in vitro ADME; set-up: key: +++: substantially intact; −: completely cleaved
# Proteinase K, sequence (P06873 106-384): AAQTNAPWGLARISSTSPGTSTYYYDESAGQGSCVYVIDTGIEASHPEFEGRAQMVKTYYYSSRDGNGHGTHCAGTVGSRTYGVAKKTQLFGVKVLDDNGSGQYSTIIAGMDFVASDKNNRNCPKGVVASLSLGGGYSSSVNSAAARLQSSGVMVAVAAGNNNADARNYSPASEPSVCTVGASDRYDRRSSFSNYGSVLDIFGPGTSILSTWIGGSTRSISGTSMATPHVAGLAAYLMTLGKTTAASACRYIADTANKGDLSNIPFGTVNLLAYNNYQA
# Experimental: as §1, §3
# [2] = Resistance to proteases in serum; format: in vitro ADME, human; conditions: 37° C.
# Experimental: as §1
# [3] = target: T2, biotinylated MDM2 peptide (res 2-125) (Homo sapiens, UniProt Q00987); assay: Phage ELISA, binding to MDM2; conditions: 5 mM DTT 20 min, then chymotrypsin 50 μg/ml 2 min
# T2 construct: biotinylated MDM2 peptide (res 2-125)
# T2 sequence (Q00987 2-125, species assumed): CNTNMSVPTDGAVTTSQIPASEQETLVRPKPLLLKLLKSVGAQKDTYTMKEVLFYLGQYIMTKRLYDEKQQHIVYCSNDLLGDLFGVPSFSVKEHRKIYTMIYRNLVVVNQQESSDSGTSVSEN
# Experimental: 0.6 μg/mL of biotinylated MDM2 peptide (res 2-125) was immobilized on a streptavidin-coated plate (Roche). Plate was blocked with PBSM (but 4% in milk powder) and linear or TBMB-conjugated phage (10^7 TU/well in PBSM in the presence or absence of 5 mM DTT) was incubated on the plate for 50 min at room temperature. Similarly, phage was first reduced in 5 mM DTT for 20 min, treated with chymotrypsin (50 μg/ml in PBS) for 2 min, mixed with PBSM (final concentration) and incubated on the plate for 50 min at room temperature. Phage was detected using an anti-M13-HRP monoclonal antibody (1:5000, Amersham).
# MDM2 (res 2-125) = MDM2 (res 2-125) (Homo sapiens, UniProt Q00987); assay: Fluorescence anisotropy titration, affinity for MDM2; format: binding
# MDM2 (res 2-125), sequence (Q00987 2-125, species assumed): as above
# Experimental: Titration experiments were run on a Horiba Jobin Yvon fluorimeter equipped with the Hamilton Microlab titrator controlled by laboratory software. […] The slit widths for excitation and emission were 5 nm and 15 nm and the integration time 10 s was used for each measurement. The intrinsic fluorescence of tryptophan in peptides 10, 48 was used to measure their binding affinity for MDM2 (res 2-125). The experiments were performed at 23° C. in PBS, 5 mM DTT. Usually 250 μl of MDM2 (150 μM) was titrated into 1.2 ml of peptide (1 μM). Titration data were analyzed with a standard 1:1 binding model by using the quadratic solution to the equilibrium Kd=[A][B]/[AB]. […] The fitting equation contained an extra term to account for linear drift.
# [4] = mass spectrometric analysis of cleaved species
# [5] = Kd, peptide+MDM2, λex=295 nm, 23° C., PBS, 5 mM DTT
# [6] = affinity for MDM2, synthetic peptide, sub-micromolar, stated range
compound,measurement,setting,value
CG4L1-PK15L1 TBMB: bicyclic CG4L1-PK15L1 (WO 2009/098450) (ALCIFDLGFCSDRFRNCPADE; linker 3-10-17 via TBMB),"factor of resistance, TBMB conjugate versus linear",various proteases,1-100 fold
"CC(C)C[C@@H]1NC(=O)[C@H](C)NC(=O)[C@H](CCC(=O)O)NC(=O)[C@H](CC(=O)O)NC(=O)[C@H](C)NC(=O)[C@@H]2CCCN2C(=O)[C@@H]2CSCc3cc(cc(c3)CSC[C@@H](C(=O)NCC(=O)O)NC1=O)CSC[C@H](NC(=O)[C@H](C)N)C(=O)N[C@@H](CO)C(=O)N[C@@H](CC(=O)O)C(=O)N[C@@H](CCCNC(=N)N)C(=O)N[C@@H](Cc1ccccc1)C(=O)N[C@@H](CCCNC(=N)N)C(=O)N[C@@H](CC(N)=O)C(=O)N2 [PK15-TBMB] (HELM PEPTIDE1{A.C.S.D.R.F.R.N.C.P.A.D.E.A.L.C.G}|CHEM1{[c1c(C[*:1])cc(C[*:3])cc1C[*:2]]}$PEPTIDE1,CHEM1,2:R3-1:R1|PEPTIDE1,CHEM1,9:R3-1:R2|PEPTIDE1,CHEM1,16:R3-1:R3$$$V2.0)","Peptide digestion, intactness scale","Cathepsin G; Cathepsin G 0.01, 37° C.",+++
same,"Peptide digestion, intactness scale","Cathepsin G; Cathepsin G 0.1, 37° C.",+++
same,"Peptide digestion, intactness scale","Trypsin; Trypsin 0.01, 37° C.",+++
same,"Peptide digestion, intactness scale","Trypsin; Trypsin 10, 37° C.",−
same,trypsin cleavage sites,Trypsin; [4],same cleavage sites
same,time to complete cleavage at R7,Trypsin; trypsin 0.1 μg,≤ 5 min
same,"metabolised at 1 h, 20 μM",[1],~50%
same,cleavage by chymotrypsin,"Chymotrypsin; 1 μg chymotrypsin, after 1 hour",completely cleaved
same,"Peptide digestion, intactness scale","Chymotrypsin; Chymotrypsin 0.01, 37° C.",+++
same,"Peptide digestion, intactness scale","Chymotrypsin; Chymotrypsin 0.1, 37° C.",+++
same,"Peptide digestion, intactness scale","Chymotrypsin; Chymotrypsin 1, 37° C.",+++
same,chymotrypsin cleavage site,Chymotrypsin; [4],same cleavage sites
same,"Peptide digestion, intactness scale","Subtilisin; Subtilisin 0.009, 37° C.",+++
same,"Peptide digestion, intactness scale","Subtilisin; Subtilisin 9, 37° C.",−
same,"Peptide digestion, intactness scale","Pronase; Pronase 0.01, 37° C.",+++
same,"Peptide digestion, intactness scale","Pronase; Pronase 0.1, 37° C.",+++
same,"Peptide digestion, intactness scale","Kalikrein; Kalikrein 0.01, 37° C.",+++
same,"Peptide digestion, intactness scale","Kalikrein; Kalikrein 0.1, 37° C.",+++
same,"Peptide digestion, intactness scale","Kalikrein; Kalikrein 1, 37° C.",+++
same,"factor of resistance, TBMB conjugate versus linear","Kalikrein; attack by kallikrein, by comparing different concentrations of enzyme",about 100 fold
same,"Peptide digestion, intactness scale","Proteinase K; Proteinase K 0.01, 37° C.",+++
same,"Peptide digestion, intactness scale","Proteinase K; Proteinase K 0.1, 37° C.",+++
same,"Peptide digestion, intactness scale","Proteinase K; Proteinase K 1, 37° C.",+++
same,time for which proteolysis in serum is resisted,[2]; later times not yet tested,at least 48 hours
"CC(C)C[C@@H]1NC(=O)[C@H](CCC(=O)O)NC(=O)[C@@H](NC(=O)[C@@H](N)CO)CSCc2cc3cc(c2)CSC[C@H](NC(=O)[C@H](CCCCN)NC(=O)[C@@H]2CCCN2C(=O)[C@H](CC(N)=O)NC(=O)[C@H](Cc2c[nH]c4ccccc24)NC1=O)C(=O)N[C@@H](CCCNC(=N)N)C(=O)N[C@@H](CC(C)C)C(=O)N[C@@H](CO)C(=O)N1CCC[C@H]1C(=O)N[C@@H](Cc1ccccc1)C(=O)N[C@@H](CCC(=O)O)C(=O)N[C@H](C(=O)N[C@@H](CCCCN)C(=O)NCC(=O)O)CSC3 [PEP10] (HELM PEPTIDE1{S.C.E.L.W.N.P.K.C.R.L.S.P.F.E.C.K.G}|CHEM1{[c1c(C[*:1])cc(C[*:3])cc1C[*:2]]}$PEPTIDE1,CHEM1,2:R3-1:R1|PEPTIDE1,CHEM1,9:R3-1:R2|PEPTIDE1,CHEM1,16:R3-1:R3$$$V2.0)",binding to MDM2 after proteolysis,[3],resistant to proteolysis
same,Kd,MDM2 (res 2-125); [5],267 nM
same,Kd,MDM2 (res 2-125); [6],250 to 750 nM
"CC(C)[C@@H]1NC(=O)[C@@H](NC(=O)[C@@H](N)CO)CSCc2cc3cc(c2)CSC[C@H](NC(=O)[C@H]([C@@H](C)O)NC(=O)[C@H](Cc2c[nH]c4ccccc24)NC(=O)CNC(=O)[C@H](Cc2ccccc2)NC(=O)[C@H](CCCNC(=N)N)NC1=O)C(=O)N[C@@H](CC(=O)O)C(=O)N[C@@H](CC(N)=O)C(=O)N[C@@H](CO)C(=O)N[C@@H](Cc1c[nH]c2ccccc12)C(=O)N[C@@H](Cc1c[nH]cn1)C(=O)NCC(=O)N[C@H](C(=O)N[C@@H](CCCCN)C(=O)NCC(=O)O)CSC3 [PEP48] (HELM PEPTIDE1{S.C.V.R.F.G.W.T.C.D.N.S.W.H.G.C.K.G}|CHEM1{[c1c(C[*:1])cc(C[*:3])cc1C[*:2]]}$PEPTIDE1,CHEM1,2:R3-1:R1|PEPTIDE1,CHEM1,9:R3-1:R2|PEPTIDE1,CHEM1,16:R3-1:R3$$$V2.0)",binding to MDM2 after proteolysis,[3],resistant to proteolysis
same,Kd,"MDM2 (res 2-125); Kd, peptide+MDM2, λex=280 nm",760 nM
same,Kd,MDM2 (res 2-125); [5],567 nM
same,Kd,MDM2 (res 2-125); [6],250 to 750 nM
"CC(C)C[C@H](NC(=O)[C@H](C)NC(=O)[C@H](CCC(=O)O)NC(=O)[C@H](CC(=O)O)NC(=O)[C@H](C)NC(=O)[C@@H]1CCCN1C(=O)[C@H](CSCC(N)=O)NC(=O)[C@H](CC(N)=O)NC(=O)[C@H](CCCNC(=N)N)NC(=O)[C@H](Cc1ccccc1)NC(=O)[C@H](CCCNC(=N)N)NC(=O)[C@H](CC(=O)O)NC(=O)[C@H](CO)NC(=O)[C@H](CSCC(N)=O)NC(=O)[C@H](C)N)C(=O)N[C@@H](CSCC(N)=O)C(=O)NCC(=O)O [PK15 linear, AC*SDRFRNC*PADEALC*G] (H-AC(Cam)SDRFRNC(Cam)PADEALC(Cam)G-OH)","Peptide digestion, intactness scale","Cathepsin G; Cathepsin G 0.1, 37° C.",−
same,"Peptide digestion, intactness scale","Cathepsin G; Cathepsin G 1 (μg per reaction), 37° C.",−
same,"Peptide digestion, intactness scale","Trypsin; Trypsin 1, 37° C.",−
same,"Peptide digestion, intactness scale","Trypsin; Trypsin 10, 37° C.",−
same,"Peptide digestion, intactness scale","Chymotrypsin; Chymotrypsin 0.01, 37° C.",+++
same,"Peptide digestion, intactness scale","Chymotrypsin; Chymotrypsin 1, 37° C.",−
same,"Peptide digestion, intactness scale","Chymotrypsin; Chymotrypsin 10, 37° C.",−
same,"Peptide digestion, intactness scale","Pronase; Pronase 0.01, 37° C.",+++
same,"Peptide digestion, intactness scale","Pronase; Pronase 10, 37° C.",−
same,time within which digested by the proteases in serum,[2],≤ 2 h
